Data on 17 compounds can be found in patent US9204653B2, “5-fluoro pyrimidine derivatives” (DOW AGROSCIENCES LLC, priority 2008, dated 2015).

For assay [1], the system named is Mycosphaerella graminicola; Anamorph: Septoria tritici; Bayer Code SEPTTR. The experiment in a line: Leaf blotch of wheat, foliar fungicide treatment, one day protectant (1DP) or three day curative (3DC). The settings on record: Zymoseptoria tritici. The class given is in vivo, Septoria tritici on wheat plants (variety Yuma).
In assay [2] the test system is Cercospora beticola; Bayer Code CERCBE. The experiment in a line: Leaf spot of sugar beets. The class given is in vivo, Cercospora beticola on sugar beets (variety HH-88). The settings on record: 24 h, % disease control rating, one day protectant; for pest or weed control at 25 ppm: read-out: CERCBE 1 DP 25 ppm; for pest or weed control at 75 ppm: read-out: CERCBE 1 DP 75 ppm.

The subject of assay [3] is Venturia inaequalis; Bayer Code VENTIN. The experiment in a line: Apple scab. The conditions noted are these: 24 h, % disease control rating, one day protectant; for pest or weed control at 25 ppm: read-out: VENTIN 1 DP 25 ppm; for pest or weed control at 75 ppm: read-out: VENTIN 1 DP 75 ppm. Format: in vivo.
The mark [4] stands for this setting: 24 h, one day protectant (1DP), percent disease control rating, read-out: SETTTR 1DP 25 ppm.
Setting [5] is: 24 h, one day protectant (1DP), percent disease control rating, read-out: SEPTTR 1DP 100 ppm.
The mark [6] stands for this setting: 72 h, three day curative (3DC), percent disease control rating, read-out: SEPTTR 3DC 25 ppm.
[7] abbreviates: 72 h, three day curative (3DC), percent disease control rating, read-out: SEPTTR 3DC 100 ppm.
[8] abbreviates: 24 h, one day protectant (1DP), rating of percent disease control, read-out: SETTTR 1DP 25 ppm.
[9] abbreviates: 24 h, one day protectant (1DP), rating of percent disease control, read-out: SEPTTR 1DP 100 ppm.
Where [10] appears, read: 72 h, three day curative (3DC), rating of percent disease control, read-out: SEPTTR 3DC 25 ppm.
Where [11] appears, read: 72 h, three day curative (3DC), rating of percent disease control, read-out: SEPTTR 3DC 100 ppm.
[12] abbreviates: 24 h, one day protectant, rating of percent disease control, read-out: SETTTR 1DP 25 ppm.
Setting [13] is: 24 h, one day protectant, rating of percent disease control, read-out: SEPTTR 1DP 100 ppm.
The mark [14] stands for this setting: 72 h, three day curative, rating of percent disease control, read-out: SEPTTR 3DC 25 ppm.
[15] abbreviates: 72 h, three day curative, rating of percent disease control, read-out: SEPTTR 3DC 100 ppm.

Read-outs that look alike come from different tables or passages of the source.

Turning to `CCCNC(=O)N(C(=O)NCCC)c1nc(OCc2cccc(OC)c2)ncc1F` [Compound 36, 1-[5-Fluoro-2-(3-methoxybenzyloxy)pyrimidin-4-yl](3′-propylcarbamoyl)-3-propyl-urea], the pest or weed control at 25 ppm in assay [1] (setting [4]) was 26 to 50%; in assay [1] (setting [6]), 51 to 75%; in assay [2], 51 to 75%; in assay [3] it was 51 to 75%. Besides, the pest or weed control at 100 ppm in assay [1] (setting [5]) and in assay [1] (setting [7]) was 76 to 100% each time. Further, the pest or weed control at 75 ppm in assay [2] lay within 51 to 75%; in assay [3], 76 to 100%.
As to `Nc1nc(OC(Cc2ccccc2)c2ccc(F)cc2)ncc1F` (centres unmarked) [Compound 61], the pest or weed control at 25 ppm was in the range of 76 to 100% in assay [1] (setting [4]), 0 to 25% in assay [1] (setting [6]), 0 to 25% in assay [2] and 76 to 100% in assay [3]. Moreover, the pest or weed control at 100 ppm lay in the range of 76 to 100% in assay [1] (setting [5]) and 0 to 25% in assay [1] (setting [7]). Further, the pest or weed control at 75 ppm in assay [2] lay in the range of 0 to 25%; in assay [3] it was 51 to 75%.
As for `CO/N=C\Nc1nc(OCc2ccc(F)cc2)ncc1F` [Compound 739], the pest or weed control at 25 ppm in assay [1] (setting [8]) is 76 to 100%; in assay [1] (setting [10]) it was 76 to 100%; in assay [2], 0 to 25%; in assay [3] it was 26 to 50%. The pest or weed control at 100 ppm in assay [1] (setting [9]) and in assay [1] (setting [11]) was 76 to 100% throughout. Besides, the pest or weed control at 75 ppm was 0 to 25% in assay [2] and 51 to 75% in assay [3].
For the compound `CCOCNc1nc(OCc2cccs2)ncc1F` [Compound 343], the pest or weed control at 25 ppm in assay [1] (setting [8]) lay within 26 to 50%; in assay [1] (setting [10]), 76 to 100%; in assay [2] it was 76 to 100%; in assay [3], 76 to 100%. The pest or weed control at 100 ppm in assay [1] (setting [9]) and in assay [1] (setting [11]) was 76 to 100% in each case. Further, the pest or weed control at 75 ppm in assay [2] was 76 to 100%; in assay [3], 51 to 75%.
`O=C(Nc1nc(OCc2ccc(F)cc2)ncc1F)c1cccc2nnsc12` [Compound 411]: the pest or weed control at 25 ppm in assay [1] (setting [8]) is 76 to 100%; in assay [1] (setting [10]) it was 26 to 50%; in assay [2] it was 26 to 50%; in assay [3], 51 to 75%. The figures for the pest or weed control at 100 ppm in assay [1] (setting [9]) and in assay [1] (setting [11]) were 76 to 100% and 26 to 50%, respectively. The pest or weed control at 75 ppm fell in the range of 26 to 50% in assay [2] and 51 to 75% in assay [3].
Take `Cc1ccc(COc2ncc(F)c(NN)n2)cc1` [Compound 538]: the pest or weed control at 25 ppm in assay [1] (setting [8]) lay within 26 to 50%; in assay [1] (setting [10]), 51 to 75%; in assay [2], 0 to 25%; in assay [3], 26 to 50%. The pest or weed control at 100 ppm fell in the range of 51 to 75% in assay [1] (setting [9]) and 76 to 100% in assay [1] (setting [11]). Moreover, the pest or weed control at 75 ppm is 0 to 25% in assay [2] and 51 to 75% in assay [3].
On to `Cn1nc(Oc2ncc(F)c(N)n2)cc1C(F)(F)F` [Compound 764], for which the pest or weed control at 25 ppm is 0 to 25% in assay [1] (setting [8]), 0 to 25% in assay [1] (setting [10]), 26 to 50% in assay [2] and 26 to 50% in assay [3]. The pest or weed control at 100 ppm in assay [1] (setting [9]) and in assay [1] (setting [11]) was 0 to 25% throughout. The pest or weed control at 75 ppm in assay [2] lay in the range of 0 to 25%; in assay [3], 26 to 50%.
On to `CCC(Nc1nc(OCc2ccc(F)cc2)ncc1F)OC` (centres unmarked) [Compound 14, [5-Fluoro-2-(4-fluorobenzyloxy)pyrimidin-4-yl](1-methoxypropyl)amine], for which the pest or weed control at 25 ppm lay within 76 to 100% in assay [1] (setting [4]), 76 to 100% in assay [1] (setting [6]), 0 to 25% in assay [2] and 76 to 100% in assay [3]. In addition, the pest or weed control at 100 ppm in assay [1] (setting [5]) and in assay [1] (setting [7]) was 76 to 100% in each case. Further, the pest or weed control at 75 ppm in assay [2] lay in the range of 0 to 25%; in assay [3], 76 to 100%.
`CC(CCOc1ncc(F)c(N)n1)c1ccccc1` (centres unmarked) [Compound 710]: the pest or weed control at 25 ppm in assay [1] (setting [12]) lay in the range of 51 to 75%; in assay [1] (setting [14]), 51 to 75%; in assay [2], 0 to 25%; in assay [3] it was 26 to 50%. Further, the pest or weed control at 100 ppm in assay [1] (setting [13]) and in assay [1] (setting [15]) was 76 to 100% in each case. Moreover, the results for the pest or weed control at 75 ppm in assay [2] and in assay [3] were 0 to 25% and 26 to 50%, respectively.
For `CCCNC(=S)Nc1nc(OCc2ccn(C)n2)ncc1F` [Compound 122], the pest or weed control at 25 ppm lay in the range of 0 to 25% in assay [1] (setting [4]), 26 to 50% in assay [1] (setting [6]), 26 to 50% in assay [2] and 76 to 100% in assay [3]. The pest or weed control at 100 ppm in assay [1] (setting [5]) was in the range of 51 to 75%; in assay [1] (setting [7]), 76 to 100%. For the same compound, the pest or weed control at 75 ppm in assay [2] lay within 26 to 50%; in assay [3], 76 to 100%.
`O=[N+]([O-])c1ccccc1SNc1nc(OCc2cc(C(F)(F)F)cc(C(F)(F)F)c2)ncc1F` [Compound 125]: the pest or weed control at 25 ppm in assay [1] (setting [4]) fell in the range of 26 to 50%; in assay [1] (setting [6]), 0 to 25%; in assay [2], 26 to 50%; in assay [3], 26 to 50%. The pest or weed control at 100 ppm fell in the range of 26 to 50% in assay [1] (setting [5]) and 0 to 25% in assay [1] (setting [7]). Further, the pest or weed control at 75 ppm in assay [2] lay in the range of 26 to 50%; in assay [3], 76 to 100%.
Turning to `COc1c(C)cnc(COc2ncc(F)c(N)n2)c1C` [Compound 189], the pest or weed control at 25 ppm is 51 to 75% in assay [1] (setting [8]), 51 to 75% in assay [1] (setting [10]), 26 to 50% in assay [2] and 51 to 75% in assay [3]. Further, the pest or weed control at 100 ppm in assay [1] (setting [9]) and in assay [1] (setting [11]) was 76 to 100% throughout. For the same compound, the pest or weed control at 75 ppm in assay [2] was 0 to 25%; in assay [3], 51 to 75%.
As for `CN(C)/C=N/c1nc(OC(=O)c2ccc(Cl)cc2Cl)ncc1F` [Compound 260], the pest or weed control at 25 ppm in assay [1] (setting [8]), in assay [1] (setting [10]), in assay [2] and in assay [3] was 76 to 100% each time. Also, the pest or weed control at 100 ppm in assay [1] (setting [9]) and in assay [1] (setting [11]) was 76 to 100% each time. The pest or weed control at 75 ppm was in the range of 51 to 75% in assay [2] and 76 to 100% in assay [3].
In assay [1] (24 h, % disease control rating, one day protectant, 50 ppm), `Fc1cnc(OC2CCCCC2)nc1NCc1ccc(Cl)nc1` [Compound 858] had a pest or weed control at 50 ppm of 0 to 25%. Moreover, in assay [1] (24 h, % disease control rating, one day protectant, 200 ppm), the pest or weed control at 200 ppm was 26 to 50%. For the same compound, in assay [2], the pest or weed control at 25 ppm is 26 to 50% and the pest or weed control at 75 ppm was in the range of 26 to 50%. For the same compound, in assay [3], the pest or weed control at 25 ppm was 26 to 50% and the pest or weed control at 75 ppm fell in the range of 0 to 25%.
For the compound `CN(C)/C=N/c1nc(OCc2cccc(C#N)c2)ncc1F` [Compound 418], the pest or weed control at 25 ppm is 76 to 100% in assay [1] (setting [8]), 76 to 100% in assay [1] (setting [10]), 0 to 25% in assay [2] and 51 to 75% in assay [3]. For the same compound, the pest or weed control at 100 ppm in assay [1] (setting [9]) and in assay [1] (setting [11]) was 76 to 100% in each case. Besides, the values for the pest or weed control at 75 ppm in assay [2] and in assay [3] were 0 to 25% and 51 to 75%, respectively.
With `CN(C)/C=N/c1nc(OCc2ccn(C)n2)ncc1F` [Compound 730], the pest or weed control at 25 ppm in assay [1] (setting [12]) was in the range of 76 to 100%; in assay [1] (setting [14]) it was 76 to 100%; in assay [2], 26 to 50%; in assay [3], 51 to 75%. Also, the pest or weed control at 100 ppm in assay [1] (setting [13]) and in assay [1] (setting [15]) was 76 to 100% in each case. Moreover, the pest or weed control at 75 ppm lay in the range of 26 to 50% in assay [2] and 51 to 75% in assay [3].
In the case of `Fc1ccc(COc2ncc(F)c(NCn3c(-c4cscn4)nc4ccccc43)n2)cc1` [Compound 694], the pest or weed control at 25 ppm lay in the range of 0 to 25% in assay [1] (setting [12]), 0 to 25% in assay [1] (setting [14]), 26 to 50% in assay [2] and 26 to 50% in assay [3]. Also, the pest or weed control at 100 ppm in assay [1] (setting [13]) and in assay [1] (setting [15]) was 26 to 50% each time. For the same compound, the pest or weed control at 75 ppm in assay [2] was in the range of 26 to 50%; in assay [3], 51 to 75%.
